Measured values reported in ChEMBL document CHEMBL1201861, “Genomics of Drug Sensitity in Cancer screening data, Wellcome Trust Sanger Institute”.

Columns and labels:
Test in all cases: cells
Format in all cases: functional, cell-based
Conditions in all cases: Homo sapiens
TE-8 = system: TE-8;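 also: growth inhibition of TE-8 cells, measured with a cell viability readout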
Description: SANGER: Inhibition of human TE-8 cell growth in a cell viability assay.

LAN-6 = system: LAN-6;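 also: growth inhibition of LAN-6 cells, determined with a cell viability assay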
Description: SANGER: Inhibition of human LAN-6 cell growth in a cell viability assay.

8-MG-BA = system: 8-MG-BA;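 also: growth inhibition of 8-MG-BA cells, read out with a cell viability assay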
Description: SANGER: Inhibition of human 8-MG-BA cell growth in a cell viability assay.

SK-PN-DW = system: SK-PN-DW;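 also: growth inhibition measured with a viability assay on these cells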
Description: SANGER: Inhibition of human SK-PN-DW cell growth in a cell viability assay.

NB5 = system: NB5;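 also: growth inhibition of NB5 cells, read out as cell viability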
Description: SANGER: Inhibition of human NB5 cell growth in a cell viability assay.

NH-12 = system: NH-12;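 also: growth inhibition of NH-12 cells, read out with a cell viability assay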
Description: SANGER: Inhibition of human NH-12 cell growth in a cell viability assay.

OCUB-M = system: OCUB-M;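 also: growth inhibition of the cancer cell line, read out through a cell viability assay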
Description: SANGER: Inhibition of human OCUB-M cell growth in a cell viability assay.

LOX IMVI = system: LOX IMVI
Description: SANGER: Inhibition of human LOXIMVI cell growth in a cell viability assay.

GR-ST = system: GR-ST
Description: SANGER: Inhibition of human GR-ST cell growth in a cell viability assay.

OCI-AML2 = system: OCI-AML2;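 also: growth inhibition of OCI-AML2 cells, read out with a cell viability assay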
Description: SANGER: Inhibition of human OCI-AML2 cell growth in a cell viability assay.

MLMA = system: MLMA;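 also: growth inhibition of MLMA cells (human), determined through a cell viability readout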
Description: SANGER: Inhibition of human MLMA cell growth in a cell viability assay.

ES7 = system: ES7;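 also: growth inhibition of cultured human ES7 cells, read out as cell viability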
Description: SANGER: Inhibition of human ES7 cell growth in a cell viability assay.

RKO = system: RKO;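 also: growth inhibition of human RKO cells, read out with a cell viability assay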
Description: SANGER: Inhibition of human RKO cell growth in a cell viability assay.

HT = system: HT
Description: SANGER: Inhibition of human HT cell growth in a cell viability assay.

LU-139 = system: LU-139
Description: SANGER: Inhibition of human LU-139 cell growth in a cell viability assay.

TE-10 = system: TE-10;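 also: growth inhibition of TE-10 cells, measured by a cell viability assay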
Description: SANGER: Inhibition of human TE-10 cell growth in a cell viability assay.

PSN1 = system: PSN1;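 also: suppression of growth of human PSN1 cells, read out by a cell viability assay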
Description: SANGER: Inhibition of human PSN1 cell growth in a cell viability assay.

697 = system: 697
Description: SANGER: Inhibition of human 697 cell growth in a cell viability assay.

ES1 = system: ES1;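 also: growth inhibition of ES1 cells, read out with a cell viability assay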
Description: SANGER: Inhibition of human ES1 cell growth in a cell viability assay.

TE-9 = system: TE-9;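 also: cell growth inhibition, measured with a cell viability readout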
Description: SANGER: Inhibition of human TE-9 cell growth in a cell viability assay.

MC116 = system: MC116;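 also: growth inhibition of MC116 cells, read out with a cell viability assay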
Description: SANGER: Inhibition of human MC116 cell growth in a cell viability assay.

LXF-289 cell line = system: LXF-289 cell line
Description: SANGER: Inhibition of human LXF-289 cell growth in a cell viability assay.

NCI-H1304 = system: NCI-H1304;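 also: growth inhibition of the cancer cell line, measured in a cell viability assay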
Description: SANGER: Inhibition of human NCI-H1304 cell growth in a cell viability assay.

BB30-HNC = system: BB30-HNC;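 also: growth inhibition of the cultured cell line, read out by a cell viability assay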
Description: SANGER: Inhibition of human BB30-HNC cell growth in a cell viability assay.

BT-474 = system: BT-474
Description: SANGER: Inhibition of human BT-474 cell growth in a cell viability assay.

UACC-257 = system: UACC-257
Description: SANGER: Inhibition of human UACC-257 cell growth in a cell viability assay.

SNU-5 = system: SNU-5;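 also: cell viability readout used to measure growth inhibition in human NCI-SNU-5 cells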
Description: SANGER: Inhibition of human NCI-SNU-5 cell growth in a cell viability assay.

EW-1 = system: EW-1;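 also: growth inhibition of the human EW-1 cell line, read out by a cell viability assay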
Description: SANGER: Inhibition of human EW-1 cell growth in a cell viability assay.

MFM-223 = system: MFM-223
Description: SANGER: Inhibition of human MFM-223 cell growth in a cell viability assay.

NCI-H1650 = system: NCI-H1650;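 also: growth inhibition of human NCI-H1650 cells measured by a cell viability assay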
Description: SANGER: Inhibition of human NCI-H1650 cell growth in a cell viability assay.

LS-513 = system: LS-513
Description: SANGER: Inhibition of human LS-513 cell growth in a cell viability assay.

NCI-H446 = system: NCI-H446;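 also: growth inhibition of NCI-H446 cells determined by a cell viability assay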
Description: SANGER: Inhibition of human NCI-H446 cell growth in a cell viability assay.

TE-6 = system: TE-6;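 also: growth inhibition of TE-6 cells, read out with a cell viability assay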
Description: SANGER: Inhibition of human TE-6 cell growth in a cell viability assay.

NCI-H226 = system: NCI-H226;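 also: cell viability read-out used to gauge growth inhibition of the cells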
Description: SANGER: Inhibition of human NCI-H226 cell growth in a cell viability assay.

DB = system: DB
Description: SANGER: Inhibition of human DB cell growth in a cell viability assay.

LB771-HNC = system: LB771-HNC;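 also: growth inhibition of LB771-HNC human cells, read out with a cell viability assay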
Description: SANGER: Inhibition of human LB771-HNC cell growth in a cell viability assay.

NB6 = system: NB6;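 also: growth inhibition of NB6 cells, read out by a cell viability assay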
Description: SANGER: Inhibition of human NB6 cell growth in a cell viability assay.

SNU-C2B = system: SNU-C2B;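 also: cell viability readout used to measure compound-driven suppression of SNU-C2B cell proliferation, IC50 marking half-maximal growth inhibition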
Description: SANGER: Inhibition of human SNU-C2B cell growth in a cell viability assay.

CCRF-CEM = system: CCRF-CEM;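 also: inhibition of CCRF-CEM cell growth, measured by a cell viability assay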
Description: SANGER: Inhibition of human CCRF-CEM cell growth in a cell viability assay.

NCI-H1092 = system: NCI-H1092;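 also: cell growth inhibition measured with a cell viability assay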
Description: SANGER: Inhibition of human NCI-H1092 cell growth in a cell viability assay.

SF-268 = system: SF-268;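 also: growth inhibition of SF-268 cells determined with a cell viability assay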
Description: SANGER: Inhibition of human SF268 cell growth in a cell viability assay.

K562 = system: K562
Description: SANGER: Inhibition of human K-562 cell growth in a cell viability assay.

HT-144 = system: HT-144
Description: SANGER: Inhibition of human HT-144 cell growth in a cell viability assay.

OVCAR-4 = system: OVCAR-4;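 also: growth inhibition of human OVCAR-4 cells, measured with a cell viability assay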
Description: SANGER: Inhibition of human OVCAR-4 cell growth in a cell viability assay.

LB2518-MEL = system: LB2518-MEL;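 also: growth inhibition of human LB2518-MEL cells, measured with a cell viability assay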
Description: SANGER: Inhibition of human LB2518-MEL cell growth in a cell viability assay.

MZ7-mel = system: MZ7-mel;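 also: growth inhibition of human MZ7-mel cells, measured by a cell viability assay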
Description: SANGER: Inhibition of human MZ7-mel cell growth in a cell viability assay.

LC-2-ad = system: LC-2-ad;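 also: growth inhibition of human LC-2-ad cells, read out with a cell viability assay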
Description: SANGER: Inhibition of human LC-2-ad cell growth in a cell viability assay.

KARPAS-299 = system: KARPAS-299
Description: SANGER: Inhibition of human KARPAS-299 cell growth in a cell viability assay.

Mo = system: Mo
Description: SANGER: Inhibition of human Mo-T cell growth in a cell viability assay.

DSH1 = system: DSH1;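 also: growth inhibition of human DSH1 cells, measured with a cell viability readout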
Description: SANGER: Inhibition of human DSH1 cell growth in a cell viability assay.

NMC-G1 = system: NMC-G1;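 also: growth inhibition of the NMC-G1 cell line, measured with a cell viability read-out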
Description: SANGER: Inhibition of human NMC-G1 cell growth in a cell viability assay.

Ramos-2G6-4C10 = system: Ramos-2G6-4C10;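 also: growth inhibition of the cell line, measured by a cell viability read-out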
Description: SANGER: Inhibition of human Ramos-2G6-4C10 cell growth in a cell viability assay.

A101D = system: A101D;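 also: growth inhibition of the cell line, measured with a viability assay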
Description: SANGER: Inhibition of human A101D cell growth in a cell viability assay.

RCC10RGB = system: RCC10RGB;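 also: growth inhibition of human RCC10RGB cells, read out by a cell viability assay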
Description: SANGER: Inhibition of human RCC10RGB cell growth in a cell viability assay.

BE-13 = system: BE-13;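 also: growth inhibition of human BE-13 cells, measured with a cell viability assay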
Description: SANGER: Inhibition of human BE-13 cell growth in a cell viability assay.

NCI-H82 = system: NCI-H82;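 also: growth inhibition of NCI-H82 cells, measured with a cell viability readout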
Description: SANGER: Inhibition of human NCI-H82 cell growth in a cell viability assay.

CGTH-W-1 = system: CGTH-W-1;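 also: growth inhibition of human CGTH-W-1 cells measured by cell viability assay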
Description: SANGER: Inhibition of human CGTH-W-1 cell growth in a cell viability assay.

IA-LM = system: IA-LM;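 also: cell viability assay measuring growth inhibition of human IA-LM cells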
Description: SANGER: Inhibition of human IA-LM cell growth in a cell viability assay.

MZ1-PC = system: MZ1-PC;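 also: cell viability assay measuring growth inhibition of human MZ1-PC cells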
Description: SANGER: Inhibition of human MZ1-PC cell growth in a cell viability assay.

RPMI-8226 = system: RPMI-8226
Description: SANGER: Inhibition of human RPMI-8226 cell growth in a cell viability assay.

NCI-H1838 = system: NCI-H1838;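 also: growth inhibition of NCI-H1838 cells, determined with a cell viability readout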
Description: SANGER: Inhibition of human NCI-H1838 cell growth in a cell viability assay.

LB373-MEL-D = system: LB373-MEL-D;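 also: growth inhibition of the cell line, read out in a cell viability assay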
Description: SANGER: Inhibition of human LB373-MEL-D cell growth in a cell viability assay.

SK-UT-1 = system: SK-UT-1;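 also: growth inhibition of SK-UT-1 cells, measured by a cell viability assay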
Description: SANGER: Inhibition of human SK-UT-1 cell growth in a cell viability assay.

MMAC-SF = system: MMAC-SF;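 also: growth inhibition of human MMAC-SF cells, read out with a cell viability assay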
Description: SANGER: Inhibition of human MMAC-SF cell growth in a cell viability assay.

Measured: IC50

CC(=O)c1c(C)c2cnc(Nc3ccc(N4CCNCC4)cn3)nc2n(C2CCCC2)c1=O [PALBOCICLIB]
0.148 µM: 697
1.07 µM: DB
1.17 µM: CGTH-W-1
2.38 µM: RKO
2.23 µM: SF-268
3.77 µM: A101D
1.91 µM: LOX IMVI
1.42 µM: TE-8
0.256 µM: ES1
2.77 µM: Ramos-2G6-4C10
0.444 µM: BE-13
0.273 µM: ES7
0.527 µM: RPMI-8226
2.4 µM: NB6
not listed: NCI-H1838 | LB373-MEL-D | SK-UT-1 | MMAC-SF
> 4 µM: all other assays above

CCCS(=O)(=O)Nc1ccc(F)c(C(=O)c2c[nH]c3ncc(Cl)cc23)c1F [PLX-4720]
2.12 µM: SNU-5
0.326 µM: A101D
6.18 µM: 8-MG-BA
1.15 µM: MZ7-mel
0.686 µM: MMAC-SF
3.55 µM: 697
0.363 µM: HT-144
> 10 µM: all other assays above
